Assay results as given in ChEMBL document CHEMBL1201862, “PubChem BioAssay data set” (2004).
Activity calls are given as the source filed them.

Assays:
[1] = target: NAD-dependent protein deacylase sirtuin-5, mitochondrial (Homo sapiens, UniProt Q9NXA8); assay: SIRT5 deacylase inhibitors, dose response, biochemical, fluorescence imaging, cherry-pick, set 6 (AID 720597)
Protein RecA = target: T1, Protein RecA (Mycobacterium tuberculosis, UniProt P9WHJ3); assay: Fluorescence Cell-Free Homogeneous Dose Retest to Identify Inhibitors of RecA-Intein Splicing Activity. [Related pubchem assays (depositor defined):AID2097, AID2223, AID489010, AID492950]; type: functional
T1 sequence (P9WHJ3 whole entry): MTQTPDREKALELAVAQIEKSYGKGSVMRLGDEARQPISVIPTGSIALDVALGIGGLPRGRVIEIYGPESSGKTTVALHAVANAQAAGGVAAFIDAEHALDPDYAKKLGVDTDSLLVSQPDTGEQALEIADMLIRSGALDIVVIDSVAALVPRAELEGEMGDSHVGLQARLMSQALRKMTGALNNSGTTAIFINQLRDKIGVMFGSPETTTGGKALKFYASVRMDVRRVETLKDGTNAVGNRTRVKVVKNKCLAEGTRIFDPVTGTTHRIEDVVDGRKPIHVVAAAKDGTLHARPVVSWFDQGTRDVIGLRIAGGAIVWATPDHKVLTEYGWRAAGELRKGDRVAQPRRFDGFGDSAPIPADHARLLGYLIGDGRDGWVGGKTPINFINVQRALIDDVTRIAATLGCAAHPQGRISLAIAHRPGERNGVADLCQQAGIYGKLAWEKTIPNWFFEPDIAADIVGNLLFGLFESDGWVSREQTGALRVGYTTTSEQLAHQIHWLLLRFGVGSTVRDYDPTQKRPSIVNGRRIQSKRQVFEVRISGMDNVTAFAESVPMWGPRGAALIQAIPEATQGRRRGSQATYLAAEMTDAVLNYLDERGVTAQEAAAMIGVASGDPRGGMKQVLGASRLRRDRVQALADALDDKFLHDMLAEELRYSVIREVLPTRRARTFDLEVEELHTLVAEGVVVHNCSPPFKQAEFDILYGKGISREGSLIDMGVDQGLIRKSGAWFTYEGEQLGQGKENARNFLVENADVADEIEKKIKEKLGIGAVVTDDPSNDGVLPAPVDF

[2] = target: DNA (cytosine-5)-methyltransferase 1 (Homo sapiens, UniProt P26358); assay: DNMT1 methyltransferase inhibitors, confirmation, biochemical, fluorescent molecular beacon (AID 602386); type: functional
DNA (cytosine-5)-methyltransferase 1, sequence (P26358 whole entry): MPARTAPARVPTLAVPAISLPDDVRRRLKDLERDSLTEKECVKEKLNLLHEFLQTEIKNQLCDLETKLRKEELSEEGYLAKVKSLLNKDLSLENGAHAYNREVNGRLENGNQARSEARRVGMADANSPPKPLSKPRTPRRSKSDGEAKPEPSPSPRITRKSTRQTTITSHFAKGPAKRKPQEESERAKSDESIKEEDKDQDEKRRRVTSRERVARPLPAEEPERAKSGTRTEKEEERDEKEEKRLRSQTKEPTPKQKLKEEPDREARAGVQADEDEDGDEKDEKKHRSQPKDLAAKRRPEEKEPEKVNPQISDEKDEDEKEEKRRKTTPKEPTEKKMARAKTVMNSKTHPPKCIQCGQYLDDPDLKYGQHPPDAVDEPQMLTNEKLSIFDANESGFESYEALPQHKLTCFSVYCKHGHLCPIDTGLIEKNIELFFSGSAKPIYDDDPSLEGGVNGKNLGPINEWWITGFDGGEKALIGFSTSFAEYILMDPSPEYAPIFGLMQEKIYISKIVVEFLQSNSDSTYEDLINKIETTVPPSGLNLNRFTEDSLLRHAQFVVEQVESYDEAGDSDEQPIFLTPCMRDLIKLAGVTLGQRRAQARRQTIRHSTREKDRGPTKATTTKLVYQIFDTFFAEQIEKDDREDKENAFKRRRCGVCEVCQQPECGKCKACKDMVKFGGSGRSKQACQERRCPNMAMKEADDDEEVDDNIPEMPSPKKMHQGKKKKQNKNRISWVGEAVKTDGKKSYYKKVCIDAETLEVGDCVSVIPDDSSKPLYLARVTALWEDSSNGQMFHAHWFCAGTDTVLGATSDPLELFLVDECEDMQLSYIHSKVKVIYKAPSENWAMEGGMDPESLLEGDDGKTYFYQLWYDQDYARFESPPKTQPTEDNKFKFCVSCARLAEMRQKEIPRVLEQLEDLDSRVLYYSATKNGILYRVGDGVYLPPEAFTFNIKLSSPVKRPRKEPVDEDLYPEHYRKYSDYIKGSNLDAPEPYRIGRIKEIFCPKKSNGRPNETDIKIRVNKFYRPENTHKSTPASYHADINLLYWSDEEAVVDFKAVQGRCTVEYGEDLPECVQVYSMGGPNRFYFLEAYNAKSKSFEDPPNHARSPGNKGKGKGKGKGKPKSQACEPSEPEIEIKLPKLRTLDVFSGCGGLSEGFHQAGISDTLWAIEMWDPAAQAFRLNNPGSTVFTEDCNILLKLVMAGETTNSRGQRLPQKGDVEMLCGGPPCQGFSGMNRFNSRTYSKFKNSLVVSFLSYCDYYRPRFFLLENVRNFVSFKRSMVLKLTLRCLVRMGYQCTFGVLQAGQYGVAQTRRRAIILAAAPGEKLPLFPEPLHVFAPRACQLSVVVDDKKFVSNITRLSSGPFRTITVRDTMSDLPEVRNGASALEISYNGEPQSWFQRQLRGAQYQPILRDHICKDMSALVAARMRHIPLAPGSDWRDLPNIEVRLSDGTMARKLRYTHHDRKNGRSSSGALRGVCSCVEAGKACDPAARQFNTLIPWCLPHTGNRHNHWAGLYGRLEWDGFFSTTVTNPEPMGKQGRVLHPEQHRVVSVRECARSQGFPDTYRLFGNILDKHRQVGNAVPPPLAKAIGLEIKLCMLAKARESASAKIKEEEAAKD

[3] = target: T2, Replicative DNA helicase DnaB (Mycobacterium tuberculosis, UniProt P9WMR3); assay: DnaB intein splicing inhibitors, dose response, biochemical, cell-free fluorescence (AID 449749); type: functional
T2 sequence (P9WMR3 whole entry): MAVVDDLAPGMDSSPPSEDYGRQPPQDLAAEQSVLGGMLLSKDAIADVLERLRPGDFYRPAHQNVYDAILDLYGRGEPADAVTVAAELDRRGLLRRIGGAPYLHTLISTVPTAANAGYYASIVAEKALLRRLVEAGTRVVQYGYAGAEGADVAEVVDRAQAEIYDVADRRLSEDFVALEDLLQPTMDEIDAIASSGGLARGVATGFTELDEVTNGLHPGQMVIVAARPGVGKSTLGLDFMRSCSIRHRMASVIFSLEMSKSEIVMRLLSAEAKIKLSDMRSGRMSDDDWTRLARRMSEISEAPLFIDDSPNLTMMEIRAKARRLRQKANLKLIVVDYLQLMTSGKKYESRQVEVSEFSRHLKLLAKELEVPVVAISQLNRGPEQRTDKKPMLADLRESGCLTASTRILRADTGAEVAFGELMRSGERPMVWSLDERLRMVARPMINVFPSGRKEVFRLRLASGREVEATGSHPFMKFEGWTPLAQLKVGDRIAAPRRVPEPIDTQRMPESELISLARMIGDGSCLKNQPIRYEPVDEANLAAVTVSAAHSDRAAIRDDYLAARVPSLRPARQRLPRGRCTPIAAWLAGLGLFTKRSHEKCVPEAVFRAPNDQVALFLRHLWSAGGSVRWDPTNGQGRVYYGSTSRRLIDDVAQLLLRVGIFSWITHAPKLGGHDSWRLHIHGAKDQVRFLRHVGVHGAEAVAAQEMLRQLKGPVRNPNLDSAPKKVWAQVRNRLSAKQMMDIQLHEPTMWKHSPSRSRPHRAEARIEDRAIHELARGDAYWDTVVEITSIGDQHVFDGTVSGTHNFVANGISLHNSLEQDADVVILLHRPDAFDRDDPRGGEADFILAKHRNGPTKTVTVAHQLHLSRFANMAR

Caspase-6 = Caspase-6 (Homo sapiens, UniProt P55212); assay: human caspase-6 inhibitors, dose response, biochemical, VEID-R110 fluorescence, cherry-pick (AID 720632)
Caspase-6, sequence (P55212 24-179 limits assumed): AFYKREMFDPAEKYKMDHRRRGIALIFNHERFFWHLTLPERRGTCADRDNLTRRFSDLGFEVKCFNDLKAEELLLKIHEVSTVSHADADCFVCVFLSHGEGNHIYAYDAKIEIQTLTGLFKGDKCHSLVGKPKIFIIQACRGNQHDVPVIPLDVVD
Caspase-6, sequence (P55212 194-293 limits assumed): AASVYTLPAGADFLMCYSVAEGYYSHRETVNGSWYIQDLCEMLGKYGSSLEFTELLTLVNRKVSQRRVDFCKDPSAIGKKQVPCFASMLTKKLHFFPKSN

[4] = target: Histone-lysine N-methyltransferase NSD2 (Homo sapiens, UniProt O96028); type: biochemical
Histone-lysine N-methyltransferase NSD2, sequence (O96028 whole entry): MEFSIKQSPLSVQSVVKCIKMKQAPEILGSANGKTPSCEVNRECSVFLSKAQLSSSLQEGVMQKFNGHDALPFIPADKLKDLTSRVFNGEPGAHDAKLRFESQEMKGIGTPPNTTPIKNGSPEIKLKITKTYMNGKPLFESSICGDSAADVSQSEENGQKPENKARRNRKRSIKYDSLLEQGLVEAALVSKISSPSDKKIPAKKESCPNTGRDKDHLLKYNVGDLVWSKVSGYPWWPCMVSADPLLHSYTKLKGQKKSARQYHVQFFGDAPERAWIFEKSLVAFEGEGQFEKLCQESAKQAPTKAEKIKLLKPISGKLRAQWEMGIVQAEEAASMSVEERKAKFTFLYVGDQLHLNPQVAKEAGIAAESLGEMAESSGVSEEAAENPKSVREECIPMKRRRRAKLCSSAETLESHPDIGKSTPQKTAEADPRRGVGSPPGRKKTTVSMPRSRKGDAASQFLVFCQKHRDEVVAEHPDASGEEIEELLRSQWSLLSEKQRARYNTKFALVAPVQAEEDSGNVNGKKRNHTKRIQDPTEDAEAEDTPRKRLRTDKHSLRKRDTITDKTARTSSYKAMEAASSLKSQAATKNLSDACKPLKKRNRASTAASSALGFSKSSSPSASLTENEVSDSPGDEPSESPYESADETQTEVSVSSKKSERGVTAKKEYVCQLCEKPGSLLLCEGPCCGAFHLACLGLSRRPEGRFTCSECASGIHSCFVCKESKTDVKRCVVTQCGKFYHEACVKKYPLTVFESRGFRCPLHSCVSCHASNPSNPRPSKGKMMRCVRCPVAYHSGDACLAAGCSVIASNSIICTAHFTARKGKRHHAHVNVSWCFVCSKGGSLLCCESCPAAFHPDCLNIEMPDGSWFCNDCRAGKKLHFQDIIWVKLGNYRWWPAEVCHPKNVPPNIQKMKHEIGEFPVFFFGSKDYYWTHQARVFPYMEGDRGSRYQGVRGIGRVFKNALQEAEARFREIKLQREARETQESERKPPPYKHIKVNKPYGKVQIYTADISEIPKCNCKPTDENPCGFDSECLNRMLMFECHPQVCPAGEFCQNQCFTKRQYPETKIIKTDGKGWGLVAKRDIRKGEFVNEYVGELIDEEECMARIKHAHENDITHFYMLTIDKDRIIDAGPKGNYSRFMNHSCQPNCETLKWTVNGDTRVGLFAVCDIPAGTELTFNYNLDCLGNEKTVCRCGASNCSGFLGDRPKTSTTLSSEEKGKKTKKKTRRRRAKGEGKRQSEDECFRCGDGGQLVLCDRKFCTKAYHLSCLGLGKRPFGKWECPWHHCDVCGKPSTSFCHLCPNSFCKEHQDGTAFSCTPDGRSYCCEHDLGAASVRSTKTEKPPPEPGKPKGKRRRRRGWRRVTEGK

[5] = target: Glutathione-S-transferase (Schistosoma japonicum, UniProt Q26513); assay: biotin-GST/anti-GST TR-FRET signal inhibitors, dose response, artefact control for Vif-APOBEC3G degradation inhibitor project, biochemical (AID 1117362); type: functional
Glutathione-S-transferase, sequence (Q26513 whole entry): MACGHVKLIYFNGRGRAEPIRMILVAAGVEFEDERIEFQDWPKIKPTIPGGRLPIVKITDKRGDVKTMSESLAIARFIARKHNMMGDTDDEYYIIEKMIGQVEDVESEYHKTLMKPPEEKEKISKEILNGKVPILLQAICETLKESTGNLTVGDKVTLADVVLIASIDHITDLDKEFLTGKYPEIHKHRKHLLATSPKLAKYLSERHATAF

14-3-3 protein gamma = 14-3-3 protein gamma (Homo sapiens, UniProt P61981); assay: modulators of 14-3-3 gamma client binding – dose response (AID 711); type: functional
14-3-3 protein gamma, sequence (P61981 whole entry): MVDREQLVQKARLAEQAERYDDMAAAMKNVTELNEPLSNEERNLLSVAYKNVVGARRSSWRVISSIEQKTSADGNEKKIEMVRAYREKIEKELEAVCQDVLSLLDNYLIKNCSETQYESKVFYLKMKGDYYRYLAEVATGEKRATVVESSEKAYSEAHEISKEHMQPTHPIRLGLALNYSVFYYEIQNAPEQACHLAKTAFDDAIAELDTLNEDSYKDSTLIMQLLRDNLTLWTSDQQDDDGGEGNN

[6] = target: T3, Endoribonuclease toxin MazF (Escherichia coli K-12, UniProt P0AE70); assay: fluorescent RNA oligo signal without MazF, dose response, counter-screen for MazEF activator project, biochemical, fluorescence, single-stranded RNase substrate (AID 588502); type: functional
T3 sequence (P0AE70 whole entry): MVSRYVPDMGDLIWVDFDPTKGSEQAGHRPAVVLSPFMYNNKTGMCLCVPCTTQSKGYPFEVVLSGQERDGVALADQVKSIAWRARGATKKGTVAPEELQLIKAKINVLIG

Streptokinase A = target: T4, Streptokinase A (Streptococcus pyogenes serotype M1, UniProt P10520); assay: S. pyogenes streptokinase expression inhibitors, potency, dose response, plasminogen activation absorbance, OD405 (AID 1914); type: functional, Streptococcus pyogenes M1 GAS;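 note: secreted streptokinase activity via plasminogen activation per viability signal from cell pellet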
T4 sequence (P10520 whole entry): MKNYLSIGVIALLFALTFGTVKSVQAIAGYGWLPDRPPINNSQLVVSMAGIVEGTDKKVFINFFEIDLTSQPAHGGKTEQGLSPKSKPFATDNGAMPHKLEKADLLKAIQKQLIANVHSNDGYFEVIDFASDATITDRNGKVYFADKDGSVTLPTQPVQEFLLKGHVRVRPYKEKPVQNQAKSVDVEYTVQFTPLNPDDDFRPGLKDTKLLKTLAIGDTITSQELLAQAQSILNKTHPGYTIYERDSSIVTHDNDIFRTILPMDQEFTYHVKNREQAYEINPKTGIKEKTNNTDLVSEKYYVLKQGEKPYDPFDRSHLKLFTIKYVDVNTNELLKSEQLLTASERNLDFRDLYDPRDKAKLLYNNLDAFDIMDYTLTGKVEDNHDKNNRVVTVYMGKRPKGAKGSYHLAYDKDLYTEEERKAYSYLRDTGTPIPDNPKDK

Streptococcus = assay: Group A Streptococcus viability loss, dose response, counter-screen for streptokinase expression inhibitor project, luminescence, BacTiterGlo (AID 1915); type: functional, organism-based;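 note: potency for reduction of bacterial viability or growth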
[7] = target: T3, Endoribonuclease toxin MazF; assay: MazF toxin RNase activators, dose response, biochemical, fluorescence, single-stranded RNA substrate, uHTS hits (AID 588481); type: functional
H9c2 = assay: cells; type: functional, cell-based; details: Rattus norvegicus, H9c2, Myocardium;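 note: confirmatory concentration-response retest of ultra-high-throughput screening hits for modulation of myocardial damage; cell death induced by hydrogen peroxide oxidative stress; compound pretreatment for 60 min then peroxide exposure for 2 h; potency is for protecting the cells against peroxide damage rather than for killing them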
Ephrin type-A receptor 4 = Ephrin type-A receptor 4 (Mus musculus, UniProt Q03137); assay: inhibitors of EphA4 binding to KYL peptide, primary screen, biochemical, colorimetric, mouse EphA4 (AID 689); type: functional
Ephrin type-A receptor 4, sequence (Q03137 whole entry): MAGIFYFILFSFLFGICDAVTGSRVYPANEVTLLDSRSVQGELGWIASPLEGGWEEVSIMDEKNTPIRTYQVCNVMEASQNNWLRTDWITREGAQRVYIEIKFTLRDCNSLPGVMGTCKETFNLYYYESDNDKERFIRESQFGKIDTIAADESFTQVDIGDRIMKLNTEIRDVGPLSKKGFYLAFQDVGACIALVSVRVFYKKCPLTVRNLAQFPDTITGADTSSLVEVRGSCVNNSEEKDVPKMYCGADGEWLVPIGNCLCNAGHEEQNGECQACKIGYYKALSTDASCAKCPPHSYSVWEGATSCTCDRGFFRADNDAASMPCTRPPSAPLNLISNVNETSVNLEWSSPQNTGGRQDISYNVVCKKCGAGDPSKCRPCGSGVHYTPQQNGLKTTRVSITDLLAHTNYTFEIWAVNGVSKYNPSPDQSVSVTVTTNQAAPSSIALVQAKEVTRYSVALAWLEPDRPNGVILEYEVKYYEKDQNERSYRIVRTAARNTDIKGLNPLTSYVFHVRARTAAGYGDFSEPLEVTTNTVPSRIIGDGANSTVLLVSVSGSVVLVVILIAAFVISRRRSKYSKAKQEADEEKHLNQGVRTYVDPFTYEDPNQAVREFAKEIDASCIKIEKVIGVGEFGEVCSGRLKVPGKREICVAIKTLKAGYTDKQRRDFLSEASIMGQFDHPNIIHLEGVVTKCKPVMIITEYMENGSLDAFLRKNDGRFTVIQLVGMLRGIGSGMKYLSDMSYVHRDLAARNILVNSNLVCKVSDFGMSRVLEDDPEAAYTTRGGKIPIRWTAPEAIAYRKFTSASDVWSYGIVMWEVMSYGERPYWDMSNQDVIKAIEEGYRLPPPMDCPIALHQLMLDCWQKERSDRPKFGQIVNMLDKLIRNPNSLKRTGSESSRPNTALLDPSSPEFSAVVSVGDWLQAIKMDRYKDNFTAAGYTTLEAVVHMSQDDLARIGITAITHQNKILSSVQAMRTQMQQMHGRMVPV

[8] = test system: Streptococcus sp. 'group A'; assay: growth inhibition of control SK(-) GAS strain, dose response, counter-screen for streptokinase expression inhibitor project, luminescence, kanamycin, BacTiterGlo, confirmation (AID 1900); type: functional, organism-based
[9] = A2780 ovarian cancer cell cytotoxicity, dose response, cytotoxicity control, plate reader, dry powder samples (AID 743046); type: functional, cell-based
[10] = NIH:OVCAR-3 ovarian cancer cell cytotoxicity, dose response, PAX8 inhibitor project, plate reader, dry powder samples (AID 743044); type: functional, cell-based
[11] = cytotoxicity in OVCAR8 ovarian cancer cells, dose response, PAX8 project, cell-based, plate reader, dry powder samples (AID 743197); type: functional; details: OVCAR-8
Paired box protein Pax-8 = Paired box protein Pax-8 (Homo sapiens, UniProt Q06710); assay: inhibitors of PAX8-driven TPO luciferase reporter, dose response, RMG-I cells, cherry-pick (AID 687027); type: functional, cell-based;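 note: luciferase reporter driven by Pax8 target thyroperoxidase promoter measured by SteadyGlo luminescence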
[12] = cytotoxicity toward HT-29 cells – cell-based, CellTiter-Glo luminescence, IC50, dose response (AID 1117330); type: functional
[13] = cytotoxicity toward Colo320 cells – cell-based, CellTiter-Glo luminescence, IC50, dose response (AID 1117334); type: functional; details: COLO 320
[14] = SNU-C1 cell viability reduction, dose response, CellTiter-Glo luminescence (AID 1117323); type: functional, cell-based
[15] = HCT116 cell viability decrease, GSK3B pretreatment – CellTiter-Glo, IC50, dose response (AID 1117339); type: functional; details: HCT-116
[16] = RKO cell viability reduction, dose response, CellTiter-Glo luminescence (AID 1117322); type: functional
[17] = Concentration-dependent survival of SW480 colon cancer line, luminescence detection with CellTiter-Glo, half-maximal inhibitory concentration (AID 1117338); type: functional
[18] = cytotoxicity toward HCT116 cells – cell-based, CellTiter-Glo luminescence, IC50, dose response (AID 1117332); type: functional; details: HCT-116
[19] = CellTiter-Glo luminescent dose response of DLD-1 viability loss (AID 1117352); type: functional

NAD-dependent protein deacylase sirtuin-5, mitochondrial, sequence (Q9NXA8 whole entry): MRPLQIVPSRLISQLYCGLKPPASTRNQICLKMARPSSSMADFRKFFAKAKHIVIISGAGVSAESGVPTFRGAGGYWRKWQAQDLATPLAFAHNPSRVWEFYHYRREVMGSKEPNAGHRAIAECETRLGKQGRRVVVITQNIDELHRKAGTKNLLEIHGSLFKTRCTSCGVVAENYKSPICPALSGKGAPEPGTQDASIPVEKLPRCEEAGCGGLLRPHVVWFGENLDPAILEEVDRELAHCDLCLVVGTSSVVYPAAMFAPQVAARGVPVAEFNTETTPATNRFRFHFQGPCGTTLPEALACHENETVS

For C[C@H](CO)N1C[C@H](C)[C@@H](CN(C)C)Oc2ccc(NC(=O)Nc3ccc(F)cc3)cc2CC1=O, the AC50 [1] was > 30 µM (inactive).

In the case of NS(=O)(=O)c1ccc(N=Nc2ccc(O)nc2O)cc1, the EC50 (Protein RecA) is reported as 4.4 µM (active), the IC50 [2] is reported as 7.65 µM (active) and the AC50 [3] is reported as 53.2 µM (active). For the same molecule, the AC50 (Caspase-6) was 2.07 µM (active) and the AC50 [4] was > 20 µM (inactive).

In the case of C=CCn1c(C)cc(-c2csc(N)n2)c1C, the IC50 [5] is reported as 28.2 µM (active).

In the case of CN(C)S(=O)(=O)CC12CCC(CC1=O)C2(C)C (stereo not drawn), the IC50 (14-3-3 protein gamma) is reported as > 50 µM (not active).

For CCn1c(O)c(/C=N/N=C/c2ccccc2)c2ccc(C3=NNC(=O)CC3)cc21, the EC50 [6] was > 99 µM (inactive), the EC50 (Streptokinase A) was > 150 µM (not active) and the EC50 (Streptococcus) was 10.5 µM (active). The EC50 [7] was > 99 µM (inactive), the IC50 (H9c2) was > 79 µM (inactive) and the IC50 (Ephrin type-A receptor 4) was > 100 µM (not active). For the same molecule, the EC50 [8] was 6.42 µM (active).

With CC(C)CC#Cc1ccc([C@@H]2[C@@H](CO)N3C(=O)CN(C(=O)c4ccccn4)C[C@H]23)cc1 the AC50 [1] was 19.7 µM (active).

In the case of C[C@H]1CN([C@@H](C)CO)C(=O)Cc2cc(NC(=O)C3CC3)ccc2O[C@@H]1CN(C)Cc1ccc(-c2ccccc2)cc1, the AC50 [9] is reported as 21.9 µM (active), the AC50 [10] is reported as 38 µM (active) and the AC50 [11] is reported as > 70 µM (inactive). For the same molecule, the AC50 (Paired box protein Pax-8) was 6.35 µM (active).

In the case of CCOC(=O)C=C(C)C=CC[C@@H](C)CCCC(C)C, the IC50 [12] is reported as > 20 µM (inactive), the IC50 [13] is reported as > 20 µM (inactive) and the IC50 [14] is reported as > 20 µM (inactive). For the same molecule, the IC50 [15] was > 20 µM (inactive), the IC50 [16] was > 20 µM (inactive) and the IC50 [17] was > 20 µM (inactive). For the same molecule, the IC50 [18] was > 20 µM (inactive) and the IC50 [19] was > 20 µM (inactive).
